The values that follow are results of earlier work, collected in patent US11974997B2, “RORgamma modulators and uses thereof” (Genfit, priority 2017, dated 2024).

Structures are written as SMILES.

The conditions of data set [1]: administered by injection; cited from earlier work.
For data set [2] the following is noted: administered by injection; cited from earlier work. The source holds these as a separate data set.
For data set [3] the following is noted: cited from earlier work.

Consider `CC(=O)Nc1nc(C)c(S(=O)(=O)Nc2ccc(C(O)(C(F)(F)F)C(F)(F)F)cc2)s1` [SR1001], for which the “efficacy in multiple sclerosis model” value in data set [1] was “efficacious”.
For `Cc1ccc([C@@H](NC(=O)Cc2ccc3oc([C@@H](O)c4c(C)noc4C)cc3c2)c2ccccc2)c(C)c1` [TMP778], in data set [2], the “efficacy in psoriasis model” value is recorded as “efficacious”.
Take `CCS(=O)(=O)c1ccc(CNC(=O)c2cnc3c(c2)CN(C[C@H]2CC[C@H](C(F)(F)F)CC2)[C@H]3C(C)C)nc1` [VTP-43742]: in data set [3] (350 mg dose group), the “reduction in the Psoriasis Area Severity Index (PASI) score relative to placebo” value is 24%. Also, in data set [3] (700 mg dose group), the “placebo-adjusted PASI score reduction” value is recorded as 30%. In addition, the “plasma IL-17 levels relative to placebo” value in data set [3] (patients with moderate to severe psoriasis) was “reduced”.
